Experimental data reported in patent publication US10080739B2, “Aryl imidazoles and their use as anti-cancer agents” (Aptose Biosciences Inc., priority 2003, dated 2018).
Read-outs that look alike come from different tables or passages of the source.

How the values were obtained:
[1] = tested on: human non-small cell lung cancer cells (H460); experiment: XTT cell proliferation assay, H460 cells, 48 h; type: cell-based; details: read-out: % Survival
Experimental: (§1) Selected compounds of Formula I were tested for anti-cancer activity in vitro using a human colon carcinoma cells (HT-29) and human non-small cell lung cancer cells (H460). The cells were maintained in α-MEM medium (Wisent, St-Bruno, Qc) supplemented with 10% FBS, and grown at 37° C. in an atmosphere of 5% CO2. Cells were transferred onto 150 mm tissue culture plates and grown until sub-confluency (70-80%) prior to their use.
(§2) The anti-cancer activity in vitro was evaluated by a cell proliferation assay based on the ability of live cells to reduce the tetrazolium salt XTT to orange coloured compounds of formazan (XTT cell proliferation kit II, Roche Applied Science, Montreal, QC).
(§3) Approximately 4×10^3 colon cancer cells (HT-29) or 2×10^3 non-small cell lung cancer cells (NCI-H460) in 100 μl of complete culture medium were plated onto 96-well microtiter plates and incubated overnight at 37° C. The medium was then removed by inverting the plate and patting on a sterile absorbent cloth. Fifty μl of medium containing the test compound at either 25 or 100 μM, were added to the wells containing cells and incubated at 37° C. in an atmosphere of 5% CO2 for 48 h. Following incubation, 25 μl of an XTT reaction mixture (XTT at a final concentration of 0.3 mg/ml) were added to each well and the plates were incubated for a further 4 h. The absorbance of each sample was then determined at a wavelength of 490 nm/650 nm as reference. Each compound was tested in duplicate and the results are reported as averages.

[2] = tested on: human colon carcinoma cells (HT-29); experiment: XTT cell proliferation assay, HT-29 cells, 48 h; type: cell-based; details: read-out: % Survival; for viability at 25 µM: 25 μM compound; for viability at 100 µM: 100 μM compound
Experimental: as §1, §2, §3

[3] = NCI/DTP data; cited from earlier work
[4] = NCI-H460 cells, 25 μM compound, 48 h, XTT
[5] = NCI-H460 cells, 100 μM compound, 48 h, XTT

Row | Structure (SMILES) | viability at 25 µM [1, 4] | viability at 100 µM [1, 5] | viability at 25 µM [2] | viability at 100 µM [2] | melting point | activity in the In Vivo Anticancer Drug Screen [3] | viability at 25 µM ([1]; NCI-H460, 48 h) | viability at 100 µM ([1]; NCI-H460, 48 h)
1 | CCc1c2c(nc3ccc(OC(=O)N4CCC(N5CCCCC5)CC4)cc13)-c1cc3c(c(=O)n1C2)COC(=O)[C@]3(O)CC [CPT-11, irinotecan, reference compound] | 32.2% | 6.1% | 82.3% | 51.1% | – | – | – | –
2 | c1ccc(-c2[nH]c3ccccc3c2-c2nc3c4ccccc4c4ccccc4c3[nH]2)cc1 | – | – | – | – | 240 to 242 °C | – | – | –
3 | COc1ccc(-c2nc(-c3ccccc3)c(-c3ccccc3)[nH]2)c(OC)c1 [Compound 73] | 89.2% | 53.5% | 65% | 62.2% | – | – | – | –
4 | Cc1[nH]c2ccccc2c1-c1nc(-c2ccccc2)c(-c2ccc(F)cc2)[nH]1 [Compound 35] | 83.8% | 1.2% | 44.1% | 2.5% | – | – | – | –
5 | Cc1[nH]c2ccccc2c1-c1nc(-c2ccccc2)c(-c2ccc(Cl)cc2)[nH]1 [Compound 31] | 94% | 37.6% | 98.6% | 24.9% | – | – | – | –
6 | CN(C)c1ccc(-c2nc3c4ccccc4c4ccccc4c3[nH]2)cc1 [NCI #322334] | – | – | – | – | – | None of these three compounds showed any activity | – | –
7 | Brc1ccc2[nH]cc(C=Nc3ccc4c5ccccc5c5nc(-c6c[nH]c7ccc(Br)cc67)[nH]c5c4c3)c2c1 | – | – | – | – | 236 to 237 °C | – | – | –
8 | Cc1[nH]c2ccccc2c1-c1nc(-c2ccncc2)c(-c2ccc(F)cc2)[nH]1 [Compound 27] | 93.5% | 43.1% | 62.3% | 35% | – | – | – | –
9 | Cc1[nH]c2ccccc2c1-c1nc(-c2ccc(Br)cc2)c(-c2ccc(Br)cc2)[nH]1 [Compound 13] | 102% | 96.2% | 106% | 82.4% | – | – | – | –
10 | Brc1ccc2[nH]cc(-c3nc(-c4ccccc4)c(-c4ccccc4)[nH]3)c2c1 [Compound 6] | 10.4% | 1.9% | 11.7% | 3.2% | – | – | – | –
11 | Cc1[nH]c2ccccc2c1-c1nc2c3ccccc3c3ccccc3c2[nH]1 [Compound 44] | – | – | 63.6% | 6.5% | – | – | 77.3% | 3.4%
12 | Cc1[nH]c2ccccc2c1-c1nc(-c2cccc([N+](=O)[O-])c2)c(-c2cccc([N+](=O)[O-])c2)[nH]1 [Compound 29] | – | – | 37.1% | 20.9% | – | – | 73.8% | 20.2%
13 | Brc1ccc2[nH]cc(-c3nc(-c4ccc(-c5ccccc5)cc4)c(-c4ccc(-c5ccccc5)cc4)[nH]3)c2c1 [Compound 41] | – | – | – | – | 155 to 158 °C | – | – | –
14 | Brc1ccc(-c2[nH]c(-c3c[nH]c4ccc(Br)cc34)nc2-c2ccccc2)cc1 [Compound 43] | 18.8% | 3% | 28% | 5.7% | – | – | – | –
15 | COc1ccc(-c2nc(-c3c(C)[nH]c4ccccc34)[nH]c2-c2ccc(OC)cc2)cc1 [Compound 9] | 98.2% | 8.4% | 68.3% | 15.1% | – | – | – | –
16 | Clc1ccc(-c2nc(-c3c[nH]c4ccc(Br)cc34)[nH]c2-c2ccc(Cl)cc2)cc1 [Compound 20] | 98.6% | 82.1% | 100% | 28.1% | – | – | – | –
17 | Cc1[nH]c2ccccc2c1-c1nc(-c2ccccc2)c(-c2ccc(Br)cc2)[nH]1 [Compound 42] | 66.1% | 1.2% | 59.9% | 1.8% | – | – | – | –
18 | c1ccc2c(-c3nc4ccccc4[nH]3)cccc2c1 [Compound 144033] | – | – | – | – | – | None of these three compounds showed any activity | – | –
19 | Oc1ccc(-c2[nH]c(-c3c[nH]c4ccc(Br)cc34)nc2-c2ccccc2)cc1O [Compound 140] | – | – | – | – | 210 to 215 °C | – | – | –
20 | Cc1[nH]c2ccc(Br)cc2c1-c1nc(-c2ccc(Oc3ccccc3)cc2)c(-c2ccc(Oc3ccccc3)cc2)[nH]1 [Compound 39] | 98.1% | 17% | 96.2% | 53% | – | – | – | –
21 | COc1ccc(-c2nc(-c3c[nH]c4ccc(Br)cc34)[nH]c2-c2ccccc2)cc1OC [Compound 96] | – | – | – | – | 265 to 266 °C | – | – | –
